Reference: patent US6492397B1, “N-arylheteroarylalkyl imidazol-2-one compounds for treatment of arteriosclerosis” (Pharmacia Corporation, priority 1991, dated 2002)
Where two headings read alike, the source gives them in different places.

Key:
[1] = molecular target: smooth muscle angiotensin II receptor; assay: Assay A: Angiotensin II Binding Activity (125I-angiotensin II displacement, rat uterine membrane preparation); details: 50% displacement of specifically bound 125I-AII, rat uterine membranes, 25° C., 60 min
Protocol: Assay A: Angiotensin II Binding Activity
Compounds of the invention were tested for ability to bind to the smooth muscle angiotensin II receptor using a rat uterine membrane preparation. […] Other chemicals were obtained from Sigma Chemical Co. This assay was carried out according to the method of Douglas et al [Endocrinology, 106, 120-124 (1980)]. Rat uterine membranes were prepared from fresh tissue. All procedures were carried out at 4° C. Uteri were stripped of fat and homogenized in phosphate-buffered saline at pH 7.4 containing 5 mM EDTA. The homogenate was centrifuged at 1500×g for 20 min., and the supernatant was recentrifuged at 100,000×g for 60 min. The pellet was resuspended in buffer consisting of 2 mM EDTA and 50 mM Tris-HCl (pH 7.5) to a final protein concentration of 4 mg/ml. Assay tubes were charged with 0.25 ml of a solution containing 5 mM MgCl2, 2 mM EDTA, 0.5% bovine serum albumin, 50 mM Tris-HCl, pH 7.5 and […] (approximately 10^5 cpm) in the absence or in the presence of unlabelled ligand. The reaction was initiated by the addition of membrane protein and the mixture was incubated at 25° C. for 60 min. The incubation was terminated with ice-cold 50 mM Tris-HCl (pH 7.5) and the mixture was filtered to separate membrane-bound labelled peptide from the free ligand. The incubation tube and filter were washed with ice-cold buffer. Filters were assayed for radioactivity in a Micromedic gamma counter. Nonspecific binding was defined as binding in the presence of 10 μM of unlabelled AII. Specific binding was calculated as total binding minus nonspecific binding. […] Binding data were analyzed by a nonlinear least-squares curve fitting program.

rabbit aortic rings = assay: Assay B: In Vitro Vascular Smooth Muscle Response for AII (antagonist activity in rabbit aortic rings); assay type: cell-based; details: Oryctolagus cuniculus, test antagonist at 10^-5 M, AII contraction, read-out: Assay B pA2 (converted)
Protocol: Assay B: In Vitro Vascular Smooth Muscle-Response for AII
The compounds of the invention were tested for antagonist activity in rabbit aortic rings. Male New Zealand white rabbits (2-2.5 kg) were sacrificed using an overdose of pentobarbital and exsanguinated via the carotid arteries. The thoracic aorta was removed, cleaned of adherent fat and connective tissue and then cut into 3-mm ring segments. The endothelium was removed from the rings by gently sliding a rolled-up piece of filter paper into the vessel lumen. The rings were then mounted in a water-jacketed tissue bath, maintained at 37° C., between moveable and fixed ends of a stainless steel wire with the moveable end attached to an FT03 Grass transducer coupled to a Model 7D Grass Polygraph for recording isometric force responses. The bath was filled with 20 ml of oxygenated (95% oxygen/5% carbon dioxide) Krebs solution of the following composition (mM): 130 NaCl, 15 NaHCO3, […], 1.2 NaH2PO4, 1.2 MgSO4, 2.5 CaCl2, and 11.4 glucose. The preparations were equilibrated for one hour before approximately one gram of passive tension was placed on the rings. Angiotensin II concentration-response curves were then recorded (3×10^−10 to 1×10^−5 M). Each concentration of AII was allowed to elicit its maximal contraction, and then AII was washed out repeatedly for 30 minutes before rechallenging with a higher concentration of AII. Aorta rings were exposed to the test antagonist at 10^−5 M for 5 minutes before challenging with AII. Adjacent segments of the same aorta ring were used for all concentration-response curves in the presence or absence of the test antagonist. The effectiveness of the test compound was expressed in terms of pA2 values and were calculated according to H. O. Schild [Br. J. Pharmacol. Chemother., 2,189-206 (1947)]. The PA2 value is the concentration of the antagonist which increases the EC50 value for AII by a factor of two. Each test antagonist was evaluated in aorta rings from two rabbits.

pressor response to AII = assay: Assay C: In Vivo Intragastric Pressor Assay Response for AII Antagonists; parameters: species or system rat; details: for Assay C Duration: Dose: 3 mg/kg (i.g.), Sprague-Dawley rats, AII challenges up to 180 minutes after gavage; for inhibition in vivo at 3 mg/kg: Rattus norvegicus, po
Protocol: Assay C: In Vivo Intragastric Pressor Assay Response for AII Antagonists
Male Sprague-Dawley rats weighing 225-300 grams were anesthetized with methohexital (30 mg/kg, i.p.) and catheters were implanted into the femoral artery and vein. The catheters were tunneled subcutaneously to exit dorsally, posterior to the head and between the scapulae. The catheters were filled with heparin (1000 units/ml of saline). The rats were returned to their cage and allowed regular rat chow and water ad libitum. After full recovery from surgery (3-4 days), rats were placed in Lucite holders and the arterial line was connected to a pressure transducer. Arterial pressure was recorded on a Gould polygraph (mmHg). Angiotensin II was administered as a 30 ng/kg bolus via the venous catheter delivered in a 50 μl volume with a 0.2 ml saline flush. The pressor response in mm Hg was measured by the difference from pre-injection arterial pressure to the maximum pressure achieved. The AII injection was repeated every 10 minutes until three consecutive injections yielded responses within 4 mmHg of each other. These three responses were then averaged and represented the control response to AII. The test compound was suspended in 0.5% methylcellulose in water and was administered by gavage. The volume administered was 2 ml/kg body weight. The standard dose was 3 mg/kg. Angiotensin II bolus injections were given at 30, 45, 60, 75, 120, 150, and 180 minutes after gavage. The pressor response to AII was measured at each time point. The rats were then returned to their cage for future testing. A minimum of 3 days was allowed between tests. Percent inhibition was calculated for each time point following gavage by the following formula: [(Control Response−Response at time point)/Control Response]×100.

[2] = first value of the pair (aorta rings from two rabbits)
[3] = second value of the pair (aorta rings from two rabbits)

Compound	IC50 [1] [nM]	Kb (rabbit aortic rings; [2]) [nM]	Kb (rabbit aortic rings; [3]) [nM]	Assay C Duration (pressor response to AII) [min]	inhibition in vivo at 3 mg/kg (pressor response to AII) [%]	melting point
CCCCc1cn(CCCC)c(=O)n1Cc1ccc(-c2ccccc2-c2nnn[nH]2)nc1 [Example 1, 1,4-dibutyl-1,3-dihydro-3-[[6-[2-(1H-tetrazol-5-yl)phenyl]-3-pyridinyl]methyl]-2H-imidazol-2-one]	6.5	1.51	2.95	>180	50	170 to 171 °C
CCCCCc1cn(CCCC)c(=O)n1Cc1ccc(-c2ccccc2-c2nnn[nH]2)nc1 [Example 6, 1-butyl-4-yl-1,3-dihydro-3-[[6-[2-(1H-tetrazol-5-yl)phenyl]-3-pyridinyl]methyl]-2H-imidazol-2-one]	10	13.5	12.9	180	10	176 to 177 °C
CCCCn1cc(C2CCCC2)n(Cc2ccc(-c3ccccc3-c3nnn[nH]3)nc2)c1=O [Example 8, 1-butyl-4-cyclopentyl-1,3-dihydro-3-[[6-[2-(1H-tetrazol-5-yl)phenyl]-3-pyridinyl]methyl]-2H-imidazol-2-one]	140					195 to 196 °C (dec.)
CCCCc1cn(C)c(=O)n1Cc1ccc(-c2ccccc2-c2nnn[nH]2)nc1 [Example 10, 1-methyl-4-butyl-1,3-dihydro-3-[[6-[2-(1H-tetrazol-5-yl)phenyl]-3-pyridinyl]methyl]-2H-imidazol-2-one]	47	22.9	44.7			184 to 185 °C (dec.)
CCCCc1cn(CC)c(=O)n1Cc1ccc(-c2ccccc2-c2nnn[nH]2)nc1 [Example 11, 1-ethyl-4-butyl-1,3-dihydro-3-[[6-[2-(1H-tetrazol-5-yl)phenyl]-3-pyridinyl]methyl]-2H-imidazol-2-one]	34	3.63	9.33			205 °C (dec.)
CCCCc1cn(CCC)c(=O)n1Cc1ccc(-c2ccccc2-c2nnn[nH]2)nc1 [Example 12, 1-propyl-4-butyl-1,3-dihydro-3-[[6-[2-(1H-tetrazol-5-yl)phenyl]-3-pyridinyl]methyl]-2H-imidazol-2-one]	31	20.9	5.5			164 to 165 °C
CCCCc1cn(CC(C)C)c(=O)n1Cc1ccc(-c2ccccc2-c2nnn[nH]2)nc1 [Example 13, 1-isobutyl-4-butyl-1,3-dihydro-3-[[6-[2-(1H-tetrazol-5-yl)phenyl]-3-pyridinyl]methyl]-2H-imidazol-2-one]	14	9.33	2.51			160 to 161.5 °C
CCCCc1cn(CCC(C)C)c(=O)n1Cc1ccc(-c2ccccc2-c2nnn[nH]2)nc1 [Example 14, 1-isopentyl-4-butyl-1,3-dihydro-3-[[6-[2-(1H-tetrazol-5-yl)phenyl]-3-pyridinyl]methyl]-2H-imidazol-2-one]	7.6	1.74	2.29	>180	35	168.5 to 170 °C
CCCCc1cn(CCC2CCCC2)c(=O)n1Cc1ccc(-c2ccccc2-c2nnn[nH]2)nc1 [Example 27, 1-(2-cyclopentylethyl)-4-butyl-1,3-dihydro-3-[[6-[2-(1H-tetrazol-5-yl)phenyl]-3-pyridinyl]methyl]-2H-imidazol-2-one]	18	1.82	2.14	>180	35	
CCCCc1cn(CCC2=CCCC2)c(=O)n1Cc1ccc(-c2ccccc2-c2nnn[nH]2)nc1 [Example 28, 1-[2-(cyclopenten-1-yl)ethyl]-4-butyl-1,3-dihydro-3-[[6-[2-(1H-tetrazol-5-yl)phenyl]-3-pyridinyl]methyl]-2H-imidazol-2-one]	23	1.41	5.62	180	15	
CCCCc1cn(-c2c(F)cccc2F)c(=O)n1Cc1ccc(-c2ccccc2-c2nnn[nH]2)nc1 [Example 36, 1-(2,6-difluorophenyl)-4-butyl-1,3-dihydro-3-[[6-[2-(1H-tetrazol-5-yl)phenyl]-3-pyridinyl]methyl]-2H-imidazol-2-one]	7			120	75	164.5 to 165.5 °C (dec.)
CCCCc1cn(-c2c(Cl)cccc2Cl)c(=O)n1Cc1ccc(-c2ccccc2-c2nnn[nH]2)nc1 [Example 37, 1-(2,6-dichlorophenyl)-4-butyl-1,3-dihydro-3-[[6-[2-(1H-tetrazol-5-yl)phenyl]-3-pyridinyl]methyl]-2H-imidazol-2-one]	4.8			>180	25	212 to 212.5 °C
CCCCc1cn(CCCC)c(=O)n1Cc1ccc(-c2ncccc2-c2nnn[nH]2)cc1 [Example 40, 1,4-dibutyl-1,3-dihydro-3-[[4-[3-(1H-tetrazol-5-yl)-2-pyridinyl]phenyl]methyl]-2H-imidazol-2-one]	91					178 to 179.5 °C
CCCCc1cn(CCCC)c(=O)n1Cc1ccc(-c2cnccc2-c2nnn[nH]2)cc1 [Example 41, 1,4-dibutyl-1,3-dihydro-3-[[4-[4-(1H-tetrazol-5-yl)-3-pyridinyl]phenyl]methyl]-2H-imidazol-2-one]	160					128 to 130 °C
CCCCc1cn(CCCC)c(=O)n1Cc1ccc(-c2ccncc2-c2nnn[nH]2)cc1 [Example 42, 1,4-dibutyl-1,3-dihydro-3-[[4-[3-(1H-tetrazol-5-yl)-4-pyridinyl]phenyl]methyl]-2H-imidazol-2-one]	93					176 to 178 °C (dec.)
CCCCc1cn(CCCC)c(=O)n1Cc1ccc(-c2cccnc2-c2nnn[nH]2)cc1 [Example 43, 1,4-dibutyl-1,3-dihydro-3-[[4-[2-(1H-tetrazol-5-yl)-3-pyridinyl]phenyl]methyl]-2H-imidazol-2-one]	89	28.2	21.4			178 to 179.5 °C
